Results on two compounds are retold here after patent publication US4730063A, “Alkali metal 2,5-dihydro-3-ethoxycarbonyl-2-[(substituted phenyl)amino]-4-furanyloxides” (Pennwalt Corportion, priority 1986, dated 1988).

In this test the test system is carrageenan-induced rat paw edema. Kind of test: carrageenan-induced rat paw edema assay. Conditions: oral doses of 50 mg/kg. The format is in vivo. (In the carrageenan paw model, swelling and tenderness develop within hours.)

Take `CCOC(=O)C1=C(O)COC1=Nc1ccccc1` [Example 1, potassium 2,5-dihydro-3-ethoxycarbonyl-2-(phenylimino)-4-furanyloxide]: the inhibition of edema stood at 31%.
For `CCOC(=O)C1=C(O)COC1=Nc1cccc([N+](=O)[O-])c1` [Example 4, potassium 2,5-dihydro-3-ethoxycarbonyl-2-[(3-nitrophenyl)imino]-4-furanyloxide] the value was 28.3%.
